Source: patent publication US20090136968A1, “Novel in vitro methods for studying receptors recognizing volatile compounds” (Chemcom S. A., priority 2005, published 2009)

What was measured:
mOR-I7 [1] = molecular target: T1, mOR-I7 (Mus musculus, UniProt Q9QWU6); experiment: CCBSA single cell calcium imaging (Fluo4) on HEK 293T overexpressing mOR-I7; type: cell-based; settings: bovine olfactory mucus incubated with 16 μl of 1M octanal, 16 hours 4° C.; 20 cells
T1 construct: expressed in transfected cells; host or cells: HEK 293T
T1 sequence (Q9QWU6 1-327): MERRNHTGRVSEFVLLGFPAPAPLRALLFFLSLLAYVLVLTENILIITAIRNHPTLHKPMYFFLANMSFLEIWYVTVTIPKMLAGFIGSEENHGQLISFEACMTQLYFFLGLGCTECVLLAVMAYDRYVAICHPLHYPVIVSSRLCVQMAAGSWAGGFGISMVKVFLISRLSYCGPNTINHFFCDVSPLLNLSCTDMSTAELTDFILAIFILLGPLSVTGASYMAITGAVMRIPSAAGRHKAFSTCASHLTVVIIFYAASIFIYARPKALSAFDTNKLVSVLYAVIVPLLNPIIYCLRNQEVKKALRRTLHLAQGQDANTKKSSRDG
Procedure: FIG. 3: Development of a novel olfactory functional assay. (A) Scheme of the novel assay according to the present invention, CCBSA. See details in the text. (B) Application of CCBSA on a microplate format fluorescent cell-based assay. Increasing volume of octanal were incubated in CCBSA, and applied on HEK 293T cell line overexpressing or not mOR-I7. Calcium flux was followed with fluo4 as calcium tracer. (C) Application of CCBSA on single cell calcium imaging assay. Octanal was incubated in CCBSA and applied on HEK 293T overexpressing mOR-I7. Upper panel depicts kinetics of calcium flux followed with fluo4 as calcium tracer. Octanal-incubated bovine olfactory mucus was applied at 50 s and ATP as positive control was applied at 310 s. Forty X objective was used for this experiment. Middle panel show kinetics of 20 individual cells taken off the field represented in the upper panel. Finally, a representation of the average of the 20 traces is given in the lower panel.
To further validate this assay, single cell calcium imaging assays following the same approach were performed (FIG. 3C). Bovine olfactory mucus was incubated in the presence of 16 μl of a 1M octanal solution for 16 hours at 4° C. […]
This novel assay allows thus an efficient solubilization of odorant and greatly improves the efficacy of the molecule. […] Such disproportion has never been detected in a conventional assay. […]

mOR-I7 [2] = molecular target: T1, mOR-I7; settings: literature (references); cited from earlier work
mOR-I7 [3] = molecular target: T1, mOR-I7; experiment: Single cell calcium imaging (Fura2) on HEK 293T overexpressing mOR-I7, with or without mucus in buffer; type: cell-based; settings: 500 μM octanal
Procedure: FIG. 2: Bovine olfactory mucus enhances hORL-424 activation by citronellal. (A and B) Calcium measurement was performed after activation of hORL-424 with citronellal in the presence of different amount of bovine olfactory mucus. 0 to 10 μl of mucus (0 to 10 μg of total protein) have been added to assay buffer. Calcium flux has been followed on FDSS (Hamamatsu Photonics K.K. plate reader, Japan) using Fluo4 as fluorescent dye. Histograms represent fluorescent signal observed in the presence or in the absence of 10 μl of bovine olfactory mucus. (C) Concentration response curve of HEK 293T overexpressing hORL-424 treated with citronellal. Gray boxes represent values obtained in the presence of bovine olfactory mucus. Calcium flux measurements have been performed on FDSS (Hamamatsu Photonics K.K. plate reader, Japan). (D and E) Traces obtained during single cell calcium imaging after addition of 500 μM octanal on HEK 293T overexpressing mOR-I7 in the absence (D) or in the presence of 10 μl of bovine olfactory mucus (E). Fura2 was used as fluorescent dye. Results are expressed as F340/F380 ratiometric measurement.
This bovine olfactory mucus property was also observed on a different OR in other assay format. FIGS. 2 D and E show traces obtained from single cell calcium imaging performed on HEK 293T overexpressing mOR-I7 and activated by octanal. In this assay, Fura2 was used as calcium tracer.

mOR-I7 [4] = molecular target: T1, mOR-I7; experiment: cAMP level immunoassay (TROPIX) in the novel assay on HEK 293T overexpressing mOR-I7; type: cell-based; settings: BSA solution incubated with 16 μl of 1 M odorant; 20 minutes incubation
Procedure: Similarly to the first step of the fluorescence-based functional assay described above, BP solutions including SA, OBP and/or olfactory mucus (see concentration in the text) were incubated in the presence of odorant in a sealed flask for 16 hours at 4° C. (FIG. 3A). Such odorant-BP complexes were then applied to cultured-cell for 20 minutes at 37° C. cAMP level was then measured using the Tropix kit according to the manufacturer procedures (Applied Biosystem).
As depicted in FIG. 1, binding of odorant molecule to olfactory receptor triggers a cascade of molecular events. In the most commonly accepted pathway, the first second messenger is cAMP synthesized by adenylate cyclase type III. Therefore, a mean to test olfactory receptor activation is to assess variation of cellular cAMP pool after olfactory receptor activation. It is noteworthy that such assay could be performed in parallel to calcium flux assay described above to validate hits obtained during a screening.
Specificity of the novel cell based olfactory functional assay according to the present invention was tested following mOR-I7 activation after injection of these three odorants and two non related odorant, vanilline and piperonyl isobutyrate. Olfactory receptor activation was detected by cellular cAMP pool immunoassay. A solution of BSA was incubated overnight at 4° C.
As discussed above (FIG. 1), activation of olfactory receptor can also be followed through cAMP synthesis. […] Results are expressed as percent of response observed after incubation with 100 μM forskolin, an activator of adenylate cyclases. […] Scheme of the odorant molecules are depicted in FIG. 7E.

SMILES: CCCCCCCC=O [octanal]
- activation of cells overexpressing mOR-I7 (single cell fluorescence kinetics) (mOR-I7 [1]): activated
- known activation of mOR-I7 (mOR-I7 [2]): activated specifically
- mOR-I7 activation (calcium flux) (mOR-I7 [3]; absence of mucus): faint activation
- mOR-I7 activation (calcium flux) (mOR-I7 [3]; presence of 10 μl bovine olfactory mucus, ATP positive control): calcium flux similar to the one observed after addition of ATP
- mOR-I7 activation by cellular cAMP pool (mOR-I7 [4]): mOR-I7 ligands
